Experimental data published in patent US8853258B2, “C-linked hydroxamic acid derivatives useful as antibacterial agents” (Pfizer Inc., priority 2009, dated 2014).
Values after ≈ are worked out from the molar mass of the structure shown. Read-outs that look alike come from different tables or passages of the source.

Legend:
[1] = target: Pseudomonas aeruginosa LpxC enzyme (Pseudomonas aeruginosa (strain ATCC 15692 / DSM 22644 / CIP 104116 / JCM 14847 / LMG 12228 / 1C / PRS 101 / PAO1), UniProt P47205); experiment: IC50 Assay, LpxC Enzyme from P. aeruginosa (PA LpxC Enzyme IC50); format: biochemical
Procedure: In order to assess the compounds biological activity, selected in-vitro assays were conducted on selected compounds. One of the assays measured the compounds ability to disrupt the synthesis of lipopolysaccharide, LPS, which is a component of the outer membrane of Gram-negative bacteria. Disruption of this synthesis is lethal to the bacteria. The assay determined the compound's ability to inhibit LpxC, which is the first enzyme in the biosynthetic pathway for LPS (measured as IC50). Additionally, MICs (minimal inhibitory concentrations) were determined for several bacteria. The specific protocols are described below:
A) IC50 Assay, LpxC Enzyme from P. aeruginosa (Labled as PA LpxC Enzyme IC50
At the end of 1 hour, 5 ul of 1N HCl was added to stop the enzyme reaction; the plates were centrifuged, and then processed with the BioTrove Rapidfire HTMS Mass Spectrometry System. A no-enzyme control was used in calculating the IC50 values from the percent conversion values.

[2] = tested on: Acinetobacter baumanii/haemolyticus: Multidrug-resistant clinical isolate (AB-3167); experiment: MIC determination (CLSI), AB-3167; format: cell-based; conditions: for MIC: Acinetobacter baumannii, Table 3, read-out: AB-3167 MIC
Outline: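 Multidrug-resistant clinical isolate AB-3167 (A. baumannii/haemolyticus) tested for minimum inhibitory concentration following CLSI dilution susceptibility standards M7-A7 and M100-S18.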

[3] = tested on: Escherichia coli EC-1: VOGEL, mouse virulent; experiment: MIC determination (CLSI), EC-1; format: cell-based; conditions: for MIC: Escherichia coli, read-out: EC-1 MIC
Outline: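 E. coli Vogel, a mouse-virulent strain (EC-1), was tested. MICs were set by dilution susceptibility testing per CLSI standards M7-A7/M100-S18.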

[4] = tested on: Klebsiella pneumoniae: Ciprofloxacin-resistant isolate, ESBL, clinical isolate (KP-3700); experiment: MIC determination (CLSI), KP-3700; format: cell-based
Outline: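 Strain KP-3700, a clinical isolate producing extended-spectrum β-lactamases and resistant to ciprofloxacin, was tested. Minimum inhibitory concentrations determined via CLSI dilution methodology (M7-A7; M100-S18).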

[5] = tested on: Pseudomonas aeruginosa UI-18: Wild-type (PA-7); experiment: MIC determination (CLSI), PA-7; format: cell-based; conditions: for MIC: Pseudomonas aeruginosa, Table 3, read-out: PA-7 MIC
Outline: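 Wild-type P. aeruginosa UI-18 tested for minimum inhibitory concentration. Broth/agar dilution following CLSI standards (M7-A7, M100-S18).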

[6] = Table 3, read-out: PA LpxC enzyeme IC^50
[7] = P. aeruginosa LpxC enzyme, read-out: PA LpxC enzyeme IC50
[8] = Acinetobacter baumanii/haemolyticus AB-3167
[9] = Pseudomonas aeruginosa UI-18 (PA-7)
[10] = Acinetobacter baumanii/haemolyticus multidrug-resistant clinical isolate AB-3167
[11] = Escherichia coli EC-1 VOGEL, mouse virulent
[12] = Pseudomonas aeruginosa UI-18 wild-type PA-7

Row | SMILES | IC50 [1, 6] | MIC [2] | MIC [3] | KP-3700 MIC [4] | MIC [5] | IC50 [1, 7] | AB-3167 MIC [2, 8] | EC-1 MIC ([3]; Escherichia coli EC-1) | PA-7 MIC [5, 9] | AB-3167 MIC [2, 10] | EC-1 MIC [3, 11] | PA-7 MIC [5, 12]
1 | CC(CCc1ccc(OCc2ccc(F)cc2C#N)cc1)(C(=O)NO)S(C)(=O)=O (stereo not drawn) [Example 284, 4-{4-[(2-cyano-4-fluorobenzyl)oxy]phenyl}-N-hydroxy-2-methyl-2-(methylsulfonyl)butanamide] | 5.36 nM | ≥ 64 µg/mL | 32 µg/mL (≈ 76.1 µM) | ≧64 mg/L | ≥ 64 µg/mL |  |  |  |  |  |  | 
2 | CC(CCc1ccc(COc2cccc(F)c2)cc1)(C(=O)NO)S(C)(=O)=O (stereo not drawn) [Example 229] |  |  |  | 32 µg/mL |  | 3.24 nM | 16 µg/mL | 8 µg/mL | 8 µg/mL |  |  | 
3 | Cc1cccc(Cc2noc(COc3ccc(CCC(C)(C(=O)NO)S(C)(=O)=O)cc3)n2)c1 (stereo not drawn) [Example 289, N-hydroxy-2-methyl-4-(4-{[3-(3-methylbenzyl)-1,2,4-oxadiazol-5-yl]methoxy}phenyl)-2-(methylsulfonyl)butanamide] | 10.4 nM | ≥ 64 µg/mL | 32 µg/mL (≈ 67.6 µM) | ≧64 mg/L | ≥ 64 µg/mL |  |  |  |  |  |  | 
4 | CC(Oc1ccc(CCC(C)(C(=O)NO)S(C)(=O)=O)cc1)c1ccccc1 (stereo not drawn) [Example 282, N-hydroxy-2-methyl-2-(methylsulfonyl)-4-[4-(1-phenylethoxy)phenyl]butanamide] | 9.55 nM | 32 µg/mL (≈ 81.7 µM) | 8 µg/mL (≈ 20.4 µM) | ≧64 mg/L | ≥ 64 µg/mL |  |  |  |  |  |  | 
5 | CC(CCc1ccc(-c2ccc(O)cc2)c(F)c1)(C(=O)NO)S(C)(=O)=O (stereo not drawn) [Example 177] |  |  |  | 8 µg/mL |  | 0.306 nM |  |  |  | 32 µg/mL | 1 µg/mL | 2 µg/mL
6 | C[C@@](CCc1ccc(-c2cccnc2)cc1)(C(=O)NO)S(C)(=O)=O [Example 198] |  |  |  | ≧64 mg/L |  | 3.84 nM |  |  |  | ≧64 mg/L | ≧64 mg/L | 8 µg/mL
7 | CC(CCc1ccc(-c2cc(F)ccc2F)cc1)(C(=O)NO)S(C)(=O)=O (stereo not drawn) [Example 38] |  |  |  | 32 µg/mL |  | 0.752 nM |  |  |  | 16 µg/mL | 2 µg/mL | 1 µg/mL
8 | C[C@@](CCc1ccc(-c2ccc(C(=O)N3CCC(O)CC3)cc2)cc1)(C(=O)NO)S(C)(=O)=O [Example 192] |  |  |  | ≧64 mg/L |  | 3.39 nM |  |  |  | ≧64 mg/L | ≧64 mg/L | 16 µg/mL
9 | CC(CCc1ccc(OCc2nc(C3CCCC3)no2)cc1)(C(=O)NO)S(C)(=O)=O (stereo not drawn) [Example 273, 4-{4-[(3-cyclopentyl-1,2,4-oxadiazol-5-yl)methoxy]phenyl}-N-hydroxy-2-methyl-2-(methylsulfonyl)butanamide] |  | ≥ 64 µg/mL | 16 µg/mL (≈ 36.6 µM) | 32 µg/mL | ≥ 64 µg/mL |  |  |  |  |  |  | 
10 | CCC(c1ccccc1)c1noc(COc2ccc(CCC(C)(C(=O)NO)S(C)(=O)=O)cc2)n1 (stereo not drawn) [Example 240, N-hydroxy-2-methyl-2-(methylsulfonyl)-4-(4-{[3-(1-phenylpropyl)-1,2,4-oxadiazol-5-yl]methoxy}phenyl)butanamide] |  | ≥ 64 µg/mL | 32 µg/mL (≈ 65.6 µM) | ≧64 mg/L | ≥ 64 µg/mL |  |  |  |  |  |  | 
11 | COc1ccc(-c2ccc(CCC(C)(C(=O)NO)S(C)(=O)=O)cc2)cc1OC (stereo not drawn) [Example 33] |  |  |  | 32 µg/mL |  |  |  |  |  | ≧64 mg/L | 16 µg/mL | 16 µg/mL
12 | CC(CCc1ccc(OCC2CCC2)cc1)(C(=O)NO)S(C)(=O)=O (stereo not drawn) [Example 266, 4-[4-(cyclobutylmethoxy)phenyl]-N-hydroxy-2-methyl-2-(methylsulfonyl)butanamide] |  | 32 µg/mL (≈ 90 µM) | 32 µg/mL (≈ 90 µM) | ≧64 mg/L | 16 µg/mL (≈ 45 µM) |  |  |  |  |  |  | 
13 | Cc1csc(-c2ccc(CCC(C)(C(=O)NO)S(C)(=O)=O)cc2)c1 (stereo not drawn) [Example 46] |  |  |  | 4 µg/mL |  |  |  |  |  | ≧64 mg/L | 2 µg/mL | 2 µg/mL
14 | CC(CCc1ccc(OCc2nc3ccccc3s2)cc1)(C(=O)NO)S(C)(=O)=O (stereo not drawn) [Example 277, 4-[4-(1,3-benzothiazol-2-ylmethoxy)phenyl]-N-hydroxy-2-methyl-2-(methylsulfonyl)butanamide] |  | ≥ 64 µg/mL | 4 µg/mL (≈ 9.21 µM) | 16 µg/mL | 32 µg/mL (≈ 73.6 µM) |  |  |  |  |  |  | 
15 | Cc1cccc(COc2ccc(CCC(C)(C(=O)NO)S(C)(=O)=O)cc2)c1F (stereo not drawn) [Example 262, 4-{4-[(2-fluoro-3-methylbenzyl)oxy]phenyl}-N-hydroxy-2-methyl-2-(methylsulfonyl)butanamide] |  | 16 µg/mL (≈ 39.1 µM) | 1 µg/mL (≈ 2.44 µM) | 8 µg/mL | 2 µg/mL (≈ 4.88 µM) |  |  |  |  |  |  | 
16 | CC(C)(O)c1ccc(-c2ccc(CCC(C)(C(=O)NO)S(C)(=O)=O)cc2)cc1 (stereo not drawn) [Example 230] |  |  |  | 32 µg/mL |  |  | ≧64 mg/L | 8 µg/mL | 8 µg/mL |  |  | 
17 | CC(CCc1ccc(OCCCC2CCCCC2)cc1)(C(=O)NO)S(C)(=O)=O (stereo not drawn) [Example 315, 4-[4-(3-cyclohexylpropoxy)phenyl]-N-hydroxy-2-methyl-2-(methylsulfonyl)butanamide] |  | 2 µg/mL (≈ 4.86 µM) | 4 µg/mL (≈ 9.72 µM) | 16 µg/mL | 32 µg/mL (≈ 77.8 µM) |  |  |  |  |  |  | 
18 | CC(C)(O)c1ccccc1-c1ccc(CCC(C)(C(=O)NO)S(C)(=O)=O)cc1 (stereo not drawn) [Example 153] |  |  |  | ≧64 mg/L |  |  |  |  |  | ≧64 mg/L | ≧64 mg/L | 32 µg/mL
19 | Cc1ccc(-c2noc(COc3ccc(CCC(C)(C(=O)NO)S(C)(=O)=O)cc3)n2)cc1 (stereo not drawn) [Example 269, N-hydroxy-2-methyl-4-(4-{[3-(4-methylphenyl)-1,2,4-oxadiazol-5-yl]methoxy}phenyl)-2-(methylsulfonyl)butanamide] |  | ≥ 64 µg/mL | 4 µg/mL (≈ 8.7 µM) | ≧64 mg/L | ≥ 64 µg/mL |  |  |  |  |  |  | 
20 | Cc1cccc(-c2ccc(CCC(C)(C(=O)NO)S(C)(=O)=O)cc2)c1 (racemic) [Example 87] |  |  |  | 4 µg/mL |  |  |  |  |  | 8 µg/mL | 2 µg/mL | 1 µg/mL
21 | CC(CCc1ccc(OCCc2ccncc2)cc1)(C(=O)NO)S(C)(=O)=O (stereo not drawn) [Example 311, N-hydroxy-2-methyl-2-(methylsulfonyl)-4-[4-(2-pyridin-4-ylethoxy)phenyl]butanamide] |  | ≥ 64 µg/mL | ≥ 64 µg/mL | ≧64 mg/L | 32 µg/mL (≈ 81.5 µM) |  |  |  |  |  |  | 
22 | Cc1nc(-c2ccc(CCC(C)(C(=O)NO)S(C)(=O)=O)cc2)ccc1C#N (stereo not drawn) [Example 131] |  |  |  | 16 µg/mL |  |  |  |  |  | ≧64 mg/L | 4 µg/mL | 4 µg/mL
23 | COc1ccc(CCC(C)(C(=O)NO)S(C)(=O)=O)cc1 (stereo not drawn) [Example 135] |  |  |  | ≧64 mg/L |  |  |  |  |  | ≧64 mg/L | ≧64 mg/L | 32 µg/mL
24 | CS(=O)(=O)C(CCc1ccc(-c2ccccc2)cc1)C(=O)NO (stereo not drawn) [Example 36] |  |  |  | 16 µg/mL |  |  |  |  |  | 32 µg/mL | 16 µg/mL | 2 µg/mL
25 | CC(CCc1ccc(OCCCC2CCCC2)cc1)(C(=O)NO)S(C)(=O)=O (stereo not drawn) [Example 313, 4-[4-(3-cyclopentylpropoxy)phenyl]-N-hydroxy-2-methyl-2-(methylsulfonyl)butanamide] |  | 2 µg/mL (≈ 5.03 µM) | 4 µg/mL (≈ 10.1 µM) | 16 µg/mL | 16 µg/mL (≈ 40.2 µM) |  |  |  |  |  |  | 
26 | CC(CCc1ccc(-c2ccc(Cl)cc2Cl)cc1)(C(=O)NO)S(C)(=O)=O (racemic) [Example 70] |  |  |  | 2 µg/mL |  |  |  |  |  | 32 µg/mL | 1 µg/mL | 1 µg/mL
27 | Cc1cc(C)cc(-c2ccc(CCC(C)(C(=O)NO)S(C)(=O)=O)cc2)c1 (racemic) [Example 52] |  |  |  | 4 µg/mL |  |  |  |  |  | 8 µg/mL | 2 µg/mL | 2 µg/mL
28 | CC(CCc1ccc(OCc2nc(Cc3cc(F)ccc3F)no2)cc1)(C(=O)NO)S(C)(=O)=O (stereo not drawn) [Example 256, 4-(4-{[3-(2,5-difluorobenzyl)-1,2,4-oxadiazol-5-yl]methoxy}phenyl)-N-hydroxy-2-methyl-2-(methylsulfonyl)butanamide] |  | ≥ 64 µg/mL | 32 µg/mL (≈ 64.6 µM) | ≧64 mg/L | ≥ 64 µg/mL |  |  |  |  |  |  | 
